Legend:
[1] = system: caspase-1 activation in ARPE-19 cells; experiment: ox-LDL-induced caspase-1 activation (FLICA probe) in ARPE-19 cells; assay type: cell-based; details: ARPE-19 serum-starved 24 hr, ox-LDL 100 μg/ml, troglitazone 1.3 μM, 48 hr
Description: Cells were imaged by fluorescent microscope and the numbers of capase-1 positive cells for each treatment group were quantified by a masked investigator.

ARPE-19 cells = experiment: ox-LDL-induced RPE (ARPE-19) cell death; assay type: cell-based; details: for protection of RPE from ox-LDL-induced cell death (FIG. 7): UVI3003 20 μM, troglitazone 1.3 μM alone or in combination with T0070907 and GW9662; for effect on the protection by PPARγ agonist troglitazone on RPE (FIG. 7): ARPE-19, ox-LDL, combined with troglitazone (1.3 μM)
Method: In FIG. 1B, ARPE-19 cells were treated for 48 hr with LDL or ox-LDL at 25, 50, or 100 μg/ml. Conditioned media were harvested, and LDH levels were quantified to evaluate cell death.
FIG. 5 is a bar graph showing testing different PPARγ agonists for RPE (ARPE-19) protection.
FIG. 7 is a bar graph showing testing the effect of different PPAR(α, γ) and RXR antagonists in ox-LDL-induced RPE (ARPE-19) cell death.

[2] = system: PPARγ target genes (ANGPT, ACOX3) in ARPE19 cells; experiment: PPARγ target genes expression in ARPE19 cells; details: 48-hour treatment, troglitazone vs. rosiglitazone
human primary RPE cells = experiment: ox-LDL-induced cell death of human primary RPE
Method: For both, RPE cells were treated with 500 μg/mL of ox-LDL for 48 hr. Data=mean±SEM, **P<0.01 and ***P<0.001 compared to ox-LDL group (2-tailed unpaired t-test).
Data=mean±SEM, ***P<0.001 compared to ox-LDL group (2-tailed unpaired t-test).

primary human RPE cells = experiment: chloroquine-induced death of primary human RPE cells
PPARγ [3] = target: T1, PPARγ (Homo sapiens, UniProt P37231); details: PPARγ antagonist; cited from earlier work
T1 sequence (P37231 1-505): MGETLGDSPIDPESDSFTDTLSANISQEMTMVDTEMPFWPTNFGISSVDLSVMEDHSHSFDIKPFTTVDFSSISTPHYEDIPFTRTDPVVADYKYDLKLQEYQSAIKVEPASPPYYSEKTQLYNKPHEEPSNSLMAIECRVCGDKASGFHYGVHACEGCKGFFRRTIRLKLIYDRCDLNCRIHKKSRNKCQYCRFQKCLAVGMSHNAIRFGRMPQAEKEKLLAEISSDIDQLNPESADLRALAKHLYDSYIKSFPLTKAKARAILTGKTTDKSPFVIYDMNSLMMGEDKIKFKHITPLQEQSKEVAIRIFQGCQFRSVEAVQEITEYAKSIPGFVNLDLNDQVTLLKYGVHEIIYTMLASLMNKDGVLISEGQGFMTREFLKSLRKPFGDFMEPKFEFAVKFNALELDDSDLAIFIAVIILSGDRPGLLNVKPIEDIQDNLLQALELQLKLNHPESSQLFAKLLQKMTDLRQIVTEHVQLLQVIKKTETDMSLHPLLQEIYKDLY

PPARγ [4] = target: T1, PPARγ; details: PPARγ agonist; cited from earlier work
RXR = RXR antagonist; cited from earlier work

## Cc1c(C)c2c(c(C)c1O)CCC(C)(COc1ccc(CC3SC(=O)NC3=O)cc1)O2 (racemic) [troglitazone, (RS)-5-(4-[(6-hydroxy-2,5,7,8-tetramethylchroman-2-yl)methoxy]benzyl)thiazolidine-2,4-dione]
[1]
  suppression of ox-LDL-induced caspase-1 activation (FIG. 3): significantly suppressed ox-LDL-induced caspase-1 activation
ARPE-19 cells; ARPE-19
  protection of RPE from ox-LDL-induced cell death (FIG. 7): significantly protected the RPE against ox-LDL-induced cell death
ARPE-19 cells; ARPE-19, troglitazone at 0.65 and 3.25 μM
  protection of RPE from ox-LDL-induced cell death (FIG. 5): significantly protected RPE cell from ox-LDL-induced cell death
[2]
  expression levels of PPARγ target genes ANGPT (angiopoietin-like-4) and ACOX3 (FIGS. 6A-B): differentially affected
Human primary RPE cells; human primary RPE, 500 μg/mL ox-LDL for 48 hr, doses of 0.65 μM and 0.98 μM
  decrease of ox-LDL-induced cell death (FIG. 2B): significantly decreased cell death in a dose-dependent manner
Human primary RPE cells; primary human RPE cells
  suppression of ox-LDL-induced death of primary human RPE cells (FIG. 4): significantly suppressed ox-LDL-induced death
Primary human RPE cells
  suppression of RPE death induced by chloroquine (FIG. 4): ineffective

## CCC(=O)NC[C@H](Cc1ccc(OCCc2nc(-c3ccccc3)oc2C)cc1)N/C(C)=C\C(=O)c1ccc(C(F)(F)F)cc1 [GW6471]
ARPE-19 cells; ARPE-19
  protection of RPE from ox-LDL-induced cell death (FIG. 7): no detectable effect in RPE protection

## O=C(Nc1ccccc1)c1cc([N+](=O)[O-])ccc1Cl [GW9662]
ARPE-19 cells
  effect on the protection by PPARγ agonist troglitazone on RPE (FIG. 7): did not affect the protection effect
ARPE-19 cells; ARPE-19
  protection of RPE from ox-LDL-induced cell death (FIG. 7): did not have any detectable protection effect
PPARγ [3]
  IC50: < 0.1 µM

## O=C1NC(=O)C(Cc2ccc3cc(OCc4ccccc4F)ccc3c2)S1 (stereo not drawn) [MCC-555]
PPARγ [4]
  EC50 relative to rosiglitazone: lower than that of rosiglitazone

## CCCCC/C=C/C=C1/C(=O)C=C[C@@H]1C/C=C\CCCC(=O)O [PGJ2, 15-deoxy-Δ^12,14-Prostaglandin J2]
PPARγ [4]
  EC50: 2 to 7 µM

## O=C(Nc1ccncc1)c1cc([N+](=O)[O-])ccc1Cl [T0070907]
ARPE-19 cells
  effect on the protection by PPARγ agonist troglitazone on RPE (FIG. 7): did not affect the protection effect
ARPE-19 cells; ARPE-19
  protection of RPE from ox-LDL-induced cell death (FIG. 7): did not have any detectable protection effect

## CCCCCOc1cc2c(cc1-c1cc(/C=C/C(=O)O)ccc1O)C(C)(C)CCC2(C)C [UVI3003]
ARPE-19 cells; ARPE-19
  protection of RPE from ox-LDL-induced cell death (FIG. 7): significantly protected RPE from ox-LDL-induced death
ARPE-19 cells; ARPE-19, UVI3003 at high dose (20 μM)
  protection of RPE from ox-LDL-induced death: about 100%
RXR
  IC50: < 1 µM
